The structures appear in SMILES notation. Read-outs that look alike come from different tables or passages of the source.

For one series, the system named is HBV. Put plainly: anti HBV activity, HepG2.117 cell line, intracellular HBV DNA by realtime PCR. In kind it is cell-based. Particulars: HepG2.117 cell line (Tet-off), 3 days of treatment, intracellular HBV DNA quantified by realtime PCR, read-out: HBV-AVE-HepG2.117 EC50. Put shortly: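 HepG2.117 cells, a Tet-off line that replicates HBV without doxycycline, were induced and then treated in duplicate with serially diluted compound. After 3 days, intracellular HBV DNA was quantified by real-time PCR with an HBV-specific primer set and probe.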

Series [1] is described as follows: Cytotoxicity in HepG2 cells, Resazurin assay. Particulars: human, HepG2 cells, TOX-HepG2-4 d CC50 (μM), HepG2 cells incubated for 4 days, viability by Resazurin assay. In general terms: Alamar Blue is a resazurin reagent that responds to reducing activity.
[2] abbreviates: Hepatitis B virus, HepG2.117, 72 h.

Usually EC50 stands for the midpoint of the concentration-response curve. By CC50 is commonly meant the concentration giving 50% cytotoxicity. Higher therefore signals better tolerance by the cells. Turning to `Cn1cc2c(c1C(=O)Nc1ccnc(C(F)F)c1)OCC(C)(CO)NS2(=O)=O` (single isomer, unassigned) [Compound 215a, N-[2-(difluoromethyl)-4-pyridyl]-3-(hydroxymethyl)-3,7-dimethyl-1,1-dioxo-2,4-dihydropyrrolo[3,4-b][1,4,5]oxathiazepine-6-carboxamide], in the series with HBV, the EC50 turned out to be 62 nM. For the same molecule, in series [1], the CC50 at 4 days is > 25 µM.
For `Cn1ccc(CC2(C)COc3c(cn(C)c3C(=O)Nc3ccnc(C(F)F)c3)S(=O)(=O)N2)n1` (single isomer, unassigned) [Compound 217a, N-[2-(difluoromethyl)-4-pyridyl]-3,7-dimethyl-3-[(1-methylpyrazol-3-yl)methyl]-1,1-dioxo-2,4-dihydropyrrolo[3,4-b][1,4,5]oxathiazepine-6-carboxamide], in that order: 25 nM and > 25 µM.
Regarding `CC(NCC(F)(F)F)C1CCc2c(cn(C)c2C(=O)Nc2cc(F)c(F)c(F)c2)S(=O)(=O)N1` (single isomer, unassigned) [Compound 218a, 7-methyl-1,1-dioxo-3-[1-(2,2,2-trifluoroethylamino)ethyl]-N-(3,4,5-trifluorophenyl)-2,3,4,5-tetrahydropyrrolo[3,4-f]thiazepine-6-carboxamide], the EC50 in the series on HBV (setting [2]) is > 125 nM. Moreover, the half-maximal cytotoxic concentration (CC50) at 4 days in series [1] was > 25 µM.
Regarding `CC(NCC(F)(F)F)C1CCc2c(cn(C)c2C(=O)Nc2cc(F)c(F)c(F)c2)S(=O)(=O)N1` (single isomer, unassigned) [Compound 218c, 7-methyl-1,1-dioxo-3-[1-(2,2,2-trifluoroethylamino)ethyl]-N-(3,4,5-trifluorophenyl)-2,3,4,5-tetrahydropyrrolo[3,4-f]thiazepine-6-carboxamide], the EC50 with HBV worked out at 6 nM. Moreover, the CC50 at 4 days in series [1] is > 25 µM.
Consider `Cc1cc(CC2(C)COc3c(cn(C)c3C(=O)Nc3ccc(F)c(C#N)c3)S(=O)(=O)N2)no1` (single isomer, unassigned) [Compound 220a, N-(3-cyano-4-fluoro-phenyl)-3,7-dimethyl-3-[(5-methylisoxazol-3-yl)methyl]-1,1-dioxo-2,4-dihydropyrrolo[3,4-b][1,4,5]oxathiazepine-6-carboxamide], for which the EC50 with HBV came to 7 nM. For the same molecule, the CC50 at 4 days in series [1] is > 25 µM.
As for `CCC(O)[C@@H]1COc2c(cn(C)c2C(=O)Nc2ccc(F)c(F)c2)S(=O)(=O)N1` (stereo in doubt) [Compound 142b, N-(3,4-difluorophenyl)-3-(1-hydroxypropyl)-7-methyl-1,1-dioxo-3,4-dihydro-2H-pyrrolo[3,4-b][1,4,5]oxathiazepine-6-carboxamide], the EC50 in the series with HBV (setting [2]) was > 125 nM. In series [1], the CC50 at 4 days was > 25 µM.
As to `CC1CCCC/C=C/Cc2c(cn(C)c2C(=O)Nc2ccc(F)c(F)c2)S(=O)(=O)N1` (centres unmarked) [Compound 1, (9E)-N-(3,4-difluorophenyl)-4,14-dimethyl-2,2-dioxo-2λ^6-thia-3,14-diazabicyclo[10.3.0]pentadeca-1(15),9,12-triene-13-carboxamide], the concentration for a half-maximal effect (EC50) in the series on HBV (setting [2]) is 2740 nM. Further, the CC50 at 4 days in series [1] was > 25 µM.
For `CC1CCC/C=C\Cc2c(cn(C)c2C(=O)Nc2ccc(F)c(F)c2)S(=O)(=O)N1` (centres unmarked) [Compound 2a, 8Z—N-(3,4-difluorophenyl)-4,13-dimethyl-2,2-dioxo-2λ^6-thia-3,13-diazabicyclo[9.3.0]tetradeca-1(14),8,11-triene-12-carboxamide], in that order: 280 nM and > 25 µM.
For `CC1CCC/C=C/Cc2c(cn(C)c2C(=O)Nc2ccc(F)c(F)c2)S(=O)(=O)N1` (centres unmarked) [Compound 2b, 8E-N-(3,4-difluorophenyl)-4,13-dimethyl-2,2-dioxo-2λ^6-thia-3,13-diazabicyclo[9.3.0]tetradeca-1(14),8,11-triene-12-carboxamide], in the series with HBV (setting [2]), the EC50 came out at 490 nM. For the same molecule, the CC50 at 4 days in series [1] was > 25 µM.
Consider `C[C@@H](N1CC/C=C\c2c(cn(C)c2C(=O)Nc2ccc(F)c(F)c2)S1(=O)=O)C(F)(F)F` [Compound 3, (5Z)—N-(3,4-difluorophenyl)-8-methyl-1,1-dioxo-2-[(1R)-2,2,2-trifluoro-1-methyl-ethyl]-3,4-dihydropyrrolo[3,4-g]thiazocine-7-carboxamide], for which, in the series on HBV (setting [2]), the EC50 is > 500 nM. Further, in series [1], the CC50 at 4 days is > 25 µM.
For `CC1/C=C\Cc2c(cn(C)c2C(=O)Nc2ccc(F)c(F)c2)S(=O)(=O)N1` (centres unmarked) [Compound 5, (4Z)—N-(3,4-difluorophenyl)-3,8-dimethyl-1,1-dioxo-3,6-dihydro-2H-pyrrolo[3,4-g]thiazocine-7-carboxamide], in that order: 180 nM and > 25 µM.
For `CC1Cc2c(cn(C)c2C(=O)Nc2ccc(F)c(F)c2)S(=O)(=O)N1` (centres unmarked) [Compound 11, N-(3,4-difluorophenyl)-3,6-dimethyl-1,1-dioxo-3,4-dihydro-2H-pyrrolo-[3,4-e]thiazine-5-carboxamide], in that order: 77 nM and > 25 µM.
For `CC1COc2c(ccc(F)c2C(=O)Nc2ccc(F)c(F)c2)S(=O)(=O)N1` (centres unmarked) [Compound 12, N-(3,4-difluorophenyl)-7-fluoro-3-methyl-1,1-dioxo-3,4-dihydro-2H-5,1λ^6,2-benzoxathiazepine-6-carboxamide], in that order: 350 nM and > 25 µM.
`Cn1cc2c(c1C(=O)Nc1ccc(F)c(F)c1)CCNS2(=O)=O` [Compound 13, N-(3,4-difluorophenyl)-6-methyl-1,1-dioxo-3,4-dihydro-2H-pyrrolo-[3,4-e]thiazine-5-carboxamide]: the EC50 in the series on HBV (setting [2]) stood at 110 nM. In addition, in series [1], the CC50 at 4 days was > 25 µM.
For `CC(C)N1CCc2c(cn(C)c2C(=O)Nc2ccc(F)c(F)c2)S1(=O)=O` [Compound 16, N-(3,4-difluorophenyl)-2-isopropyl-6-methyl-1,1-dioxo-3,4-dihydropyrrolo[3,4-e]thiazine-5-carboxamide], in that order: 230 nM and > 25 µM.
For `CCC1Cc2c(cn(C)c2C(=O)Nc2ccc(F)c(F)c2)S(=O)(=O)N1` (centres unmarked) [Compound 17, N-(3,4-difluorophenyl)-3-ethyl-6-methyl-1,1-dioxo-3,4-dihydro-2H-pyrrolo[3,4-e]thiazine-5-carboxamide], in that order: < 98 nM and > 25 µM.
In the case of `CC1C=Cc2c(cn(C)c2C(=O)Nc2ccc(F)c(F)c2)S(=O)(=O)N1C` (centres unmarked) [Compound 18, N-(3,4-difluorophenyl)-2,3,7-trimethyl-1,1-dioxo-3H-pyrrolo-[3,4-f]thiazepine-6-carboxamide], in the series with HBV (setting [2]), the EC50 is 710 nM. The CC50 at 4 days in series [1] was > 25 µM.
For the molecule `Cn1cc2c(c1C(=O)Nc1ccc(F)c(F)c1)OCC1(CC1)NS2(=O)=O` [Compound 19, N-(3,4-difluorophenyl)-7-methyl-1,1-dioxo-spiro[2,4-dihydropyrrolo-[3,4-b][1,4,5]oxathiazepine-3,1′-cyclopropane]-6-carboxamide], the EC50 in the series with HBV (setting [2]) turned out to be 190 nM. Moreover, the CC50 at 4 days in series [1] is > 25 µM.
On to `CC[C@@H]1COc2c(cn(C)c2C(=O)Nc2ccc(F)c(F)c2)S(=O)(=O)N1` [Compound 20, (3R)—N-(3,4-difluorophenyl)-3-ethyl-7-methyl-1,1-dioxo-3,4-dihydro-2H-pyrrolo[3,4-b][1,4,5]oxathiazepine-6-carboxamide], for which, in the series on HBV (setting [2]), the EC50 turned out to be 58 nM. Further, in series [1], the CC50 at 4 days is > 25 µM.
Turning to `CC1CCOc2c(cn(C)c2C(=O)Nc2ccc(F)c(F)c2)S(=O)(=O)N1` (centres unmarked) [Compound 21, N-(3,4-difluorophenyl)-3,8-dimethyl-1,1-dioxo-2,3,4,5-tetrahydropyrrolo[3,4-b][1,4,5]oxathiazocine-7-carboxamide], the concentration giving a half-maximal response (EC50) in the series on HBV (setting [2]) is 150 nM. Further, the CC50 at 4 days in series [1] was > 25 µM.
For `CC(C)[C@H]1COc2c(cn(C)c2C(=O)Nc2ccc(F)c(F)c2)S(=O)(=O)N1` [Compound 22, (3S)—N-(3,4-difluorophenyl)-3-isopropyl-7-methyl-1,1-dioxo-3,4-dihydro-2H-pyrrolo[3,4-b][1,4,5]oxathiazepine-6-carboxamide], in that order: 9 nM and > 25 µM.
For `CC[C@H](C)[C@H]1COc2c(cn(C)c2C(=O)Nc2ccc(F)c(F)c2)S(=O)(=O)N1` [Compound 23, (3 S)—N-(3,4-difluorophenyl)-7-methyl-3-[(1S)-1-methylpropyl]-1,1-dioxo-3,4-dihydro-2H-pyrrolo[3,4-b][1,4,5]oxathiazepine-6-carboxamide], in that order: 5 nM and 10.6 µM.
As to `Cn1cc2c(c1C(=O)Nc1ccc(F)c(F)c1)OCC1(COC1)NS2(=O)=O` [Compound 24, N-(3,4-difluorophenyl)-7-methyl-1,1-dioxo-spiro[2,4-dihydropyrrolo-[3,4-b][1,4,5]oxathiazepine-3,3′-oxetane]-6-carboxamide], the EC50 with HBV (setting [2]) turned out to be 68 nM. In addition, the CC50 at 4 days in series [1] is > 25 µM.
On to `Cn1cc2c(c1C(=O)Nc1ccc(F)c(F)c1)OC[C@@H](c1ccccc1)NS2(=O)=O` [Compound 25, (3R)—N-(3,4-difluorophenyl)-7-methyl-1,1-dioxo-3-phenyl-3,4-dihydro-2H-pyrrolo[3,4-b][1,4,5]oxathiazepine-6-carboxamide], for which the EC50 in the series with HBV (setting [2]) is 22 nM. Moreover, the CC50 at 4 days in series [1] is > 25 µM.
`Cn1cc2c(c1C(=O)Nc1ccc(F)c(F)c1)OC[C@H](c1ccccc1)NS2(=O)=O` [Compound 26, (3S)—N-(3,4-difluorophenyl)-7-methyl-1,1-dioxo-3-phenyl-3,4-dihydro-2H-pyrrolo[3,4-b][1,4,5]oxathiazepine-6-carboxamide]: the EC50 with HBV (setting [2]) came to 27 nM. Besides, the CC50 at 4 days in series [1] is > 25 µM.

(Values after patent US10875876B2, “Cyclized sulfamoylarylamide derivatives and the use thereof as medicaments for the treatment of hepatitis B” (priority 2015, dated 2020).)
